target: KHK—C (Homo sapiens (Human), UniProt P50053); test: KHK—C ADP-Glo kinase inhibitory activity assay; assay type: biochemical; conditions: 1 nM KHK—C, 200 μM D-Fructose, 100 μM ATP, ADP-Glo luminescence
Text: (KHK—C ADP-Glo Kinase Inhibitory Activity Assay)
Y=Bottom+(Top−Bottom)/(1+10^((LogIC50−X)×HillSlope)) • X: Log value of compound concentration • Y: Inhibition ratio (%)
[formula] • Negative control: DMSO

Chain of KHK—C (P50053 whole entry): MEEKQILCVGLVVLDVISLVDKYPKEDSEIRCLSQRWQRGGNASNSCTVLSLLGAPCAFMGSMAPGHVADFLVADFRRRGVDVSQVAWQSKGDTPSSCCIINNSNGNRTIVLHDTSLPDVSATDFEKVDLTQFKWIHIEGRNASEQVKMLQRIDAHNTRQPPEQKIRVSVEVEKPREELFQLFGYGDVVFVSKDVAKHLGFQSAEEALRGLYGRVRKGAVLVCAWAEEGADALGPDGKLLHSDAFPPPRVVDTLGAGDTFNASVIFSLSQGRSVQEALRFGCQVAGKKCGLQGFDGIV

SMILES | IC50 [nM]
C[C@H]1CCN1c1nc(N2CC[C@H](CC(=O)O)C2)c2c(n1)C(F)(F)CC2 [Example 36, 2-((R)-1-(7,7-difluoro-2-((S)-2-methylazetidine-1-yl)-6,7-dihydro-5H-cyclopentadiene[d]pyrimidin-4-yl)pyrrolidin-3-yl)acetic acid] | 13.6
C[C@H]1CCN1c1nc(N2CC3(CC(CC(=O)O)C3)C2)cc(C(F)(F)F)c1C#N [Example 9, (S)-2-(2-(5-cyano-6-(2-methylazetidine-1-yl)-4-(trifluoromethyl)pyridin-2-yl)-2-azaspiro[3.3]heptan-6-yl)acetic acid] | 27
C[C@H]1CCN1c1nc(N2CCC(CC(=O)O)CC2)c2c(n1)C(F)(F)CC2 [Example 33, (S)-2-(1-(7,7-difluoro-2-(2-methylazetidine-1-yl)-6,7-dihydro-5H-cyclopentadiene[d]pyrimidin-4-yl)piperidin-4-yl)acetic acid] | 52.8
CC(C(=O)O)[C@H]1[C@@H]2CN(c3cc(C(F)(F)F)c(C#N)c(N4CC[C@@H]4C)n3)C[C@@H]21 (stereo partly drawn) [Example 10, (R)-2-((1R,5S,6R)-3-(5-cyano-6-((S)-2-methylazetidine-1-yl)-4-(trifluoromethyl)pyridin-2-yl)-3-azabicyclo[3.1.0]hexan-6-yl)propionic acid] | 12.6
C[C@H]1CCN1c1nc(N2CCC3(CC(C(=O)O)C3)C2)c2c(n1)C(F)(F)CC2 (stereo partly drawn) [Example 26, (S)-6-(7,7-difluoro-2-(2-methylazetidine-1-yl)-6,7-dihydro-5H-cyclopentadiene[d]pyrimidin-4-yl)-6-azaspiro[3.4]octan-2-carboxylic acid] | 42.9
C[C@H]1CCN1c1nc(N2CCC3(CC2)CC(C(=O)O)C3)cc(C(F)(F)F)c1C#N [Example 3, (S)-7-(5-cyano-6-(2-methylazetidine-1-yl)-4-(trifluoromethyl)pyridin-2-yl)-7-azaspiro[3.5]nonan-2-carboxylic acid] | 115
C[C@H]1CCN1c1nc(N2CC[C@@H](CCC(=O)O)C2)cc(C(F)(F)F)c1C#N [Example 21, 3-((R)-1-(5-cyano-6-((S)-2-methylazetidine-1-yl)-4-(trifluoromethyl)pyridin-2-yl)pyrrolidin-3-yl)propionic acid] | 81.2
C[C@H]1CCN1c1nc(N2CC3(CCC(C(=O)O)C3)C2)cc(C(F)(F)F)c1C#N (stereo partly drawn) [Example 7, 2-(5-cyano-6-((S)-2-methylazetidine-1-yl)-4-(trifluoromethyl)pyridin-2-yl)-2-azaspiro[3.4]octan-6-carboxylic acid] | 36
C[C@H]1[C@H](O)CN1c1nc(N2CC3(CC(C(=O)O)C3)C2)cc(C(F)(F)F)c1C#N [Example 5, 2-(5-cyano-6-((2S,3R)-3-hydroxy-2-methylazetidine-1-yl)-4-(trifluoromethyl)pyridin-2-yl)-2-azaspiro[3.3]heptan-6-carboxylic acid] | 110
C[C@H]1CCN1c1nc(N2CC(CC(=O)O)C2)c2c(n1)C(F)(F)CC2 [Example 25, (S)-2-(1-(7,7-difluoro-2-(2-methylazetidine-1-yl)-6,7-dihydro-5H-cyclopentadiene[d]pyrimidin-4-yl)azetidine-3-yl)acetic acid] | 47
C[C@H]1CCN1c1nc(N2CCC(CCC(=O)O)C2)cc(C(F)(F)F)c1C#N (stereo partly drawn) [Example 11, 3-(1-(5-cyano-6-((S)-2-methylazetidine-1-yl)-4-(trifluoromethyl)pyridin-2-yl)pyrrolidin-3-yl)propionic acid] | 12.6
C[C@H]1CCN1c1nc(N2CC3(CC(C(=O)O)C3)C2)cc(C(F)(F)F)c1C#N [Example 1, (S)-2-(5-cyano-6-(2-methylazetidine-1-yl)-4-(trifluoromethyl)pyridin-2-yl)-2-azaspiro[3.3]heptan-6-carboxylic acid] | 27.9
C[C@H]1CCN1c1nc(N2CC[C@H](CC(=O)O)C2)cc2nccnc12 [Example 41, 2-((R)-1-(5-((S)-2-methylazetidine-1-yl)pyridino[3,4-b]pyrazin-7-yl)pyrrolidin-3-yl)acetic acid] | 3940
C[C@H]1CCN1c1nc(N2CC3(C2)CS(=O)(=O)C3)cc(C(F)(F)F)c1C#N [Example 4, (S)-6-(2,2-dioxa-2-thioxa-6-azaspiro[3.3]heptan-6-yl)-2-(2-methylazetidine-1-yl)-4-(trifluoromethyl)nicotinonitrile] | 198
C[C@H]1CCN1c1nc(N2C[C@@H]3[C@@H](CC(=O)O)[C@@H]3C2)cc2nc(C#N)cnc12 [Example 46, 2-((1R,5S,6R)-3-(2-cyano-5-((S)-2-methylazetidine-1-yl)pyridino[3,4-b]pyrazin-7-yl)-3-azabicyclo[3.1.0]hexan-6-yl)acetic acid] | 30.2
C[C@H]1CCN1c1nc(N2CC3(CC(C(=O)O)C3)C2)c2c(n1)C(F)(F)CC2 [Example 24, (S)-2-(7,7-difluoro-2-(2-methylazetidine-1-yl)-6,7-dihydro-5H-cyclopentadiene[d]pyrimidin-4-yl)-2-azaspiro[3.3]heptan-6-carboxylic acid] | 78.3
C[C@H]1CCN1c1nc(N2CCC3(CC(C(=O)O)C3)C2)cc(C(F)(F)F)c1C(N)=O (stereo partly drawn) [Example 16, (S)-6-(5-aminoformyl-6-(2-methylazetidine-1-yl)-4-(trifluoromethyl)pyridin-2-yl)-6-azaspiro[3.4]octan-2-carboxylic acid] | 6300
CO[C@@H]1CN(c2nc(N3CC4(CC(C(=O)O)C4)C3)c3c(n2)C(F)(F)CC3)[C@H]1C [Example 30, 2-(7,7-difluoro-2-((2S,3R)-3-methoxy-2-methylazetidine-1-yl)-6,7-dihydro-5H-cyclopentadiene[d]pyrimidin-4-yl)-2-azaspiro[3.3]heptan-6-carboxylic acid] | > 10000
C[C@H]1CCN1c1nc(N2CC3CN(CC(=O)O)CC3C2)c2c(n1)C(F)(F)CC2 (stereo partly drawn) [Example 35, 2-(5-(7,7-difluoro-2-((S)-2-methylazetidine-1-yl)-6,7-dihydro-5H-cyclopentadiene[c]pyrimidin-4-yl)hexahydropyrrolo[3,4-c]pyrrolo-2(1H)-yl)acetic acid] | 142
C[C@H]1CCN1c1nc(N2CCC(CC(=O)O)C2)c2c(n1)C(F)(F)CC2 (stereo partly drawn) [Example 32, 2-(1-(7,7-difluoro-2-((S)-2-methylazetidine-1-yl)-6,7-dihydro-5H-cyclopentadiene[d]pyrimidin-4-yl)pyrrolidin-3-yl)acetic acid] | 10.4
C[C@H](C(=O)O)[C@H]1[C@@H]2CN(c3cc(C(F)(F)F)c(C#N)c(N4CC[C@@H]4C)n3)C[C@@H]21 [Example 19, (S)-2-((1R,5S,6R)-3-(5-cyano-6-((S)-2-methylazetidine-1-yl)-4-(trifluoromethyl)pyridin-2-yl)-3-azabicyclo[3.1.0]hexan-6-yl)propionic acid] | 24.7
C[C@H]1[C@H](O)CN1c1nc(N2CC3(CC(C(=O)O)C3)C2)c2c(n1)C(F)(F)CC2 [Example 31, 2-(7,7-difluoro-2-((2S,3R)-3-hydroxy-2-methylazetidine-1-yl)-6,7-dihydro-5H-cyclopentadiene[d]pyrimidin-4-yl)-2-azaspiro[3.3]heptan-6-carboxylic acid] | 134
C[C@H]1CCN1c1nc(N2CC3(CN(CC(=O)O)C3)C2)cc(C(F)(F)F)c1C#N [Example 15, (S)-2-(6-(5-cyano-6-(2-methylazetidine-1-yl)-4-(trifluoromethyl)pyridin-2-yl)-2,6-diazaspiro[3.3]heptan-2-yl)acetic acid] | 212
C[C@H]1CCN1c1nc(N2CC[C@H](CCC(=O)O)C2)cc(C(F)(F)F)c1C#N [Example 20, 3-((S)-1-(5-cyano-6-((S)-2-methylazetidine-1-yl)-4-(trifluoromethyl)pyridin-2-yl)pyrrolidin-3-yl)propionic acid] | 15.4
C[C@H]1CCN1c1nc(N2CC3(CCC(C(=O)O)CC3)C2)cc(C(F)(F)F)c1C#N [Example 2, (S)-2-(5-cyano-6-(2-methylazetidine-1-yl)-4-(trifluoromethyl)pyridin-2-yl)-2-azaspiro[3.5]nonan-7-carboxylic acid] | 143
CN[C@@H]1CN(c2nc(N3CC4(CC(C(=O)O)C4)C3)c3c(n2)C(F)(F)CC3)[C@H]1C [Example 29, 2-(7,7-difluoro-2-((2S,3R)-2-methyl-3-(methylamino)azetidine-1-yl)-6,7-dihydro-5H-cyclopentadiene[d]pyrimidin-4-yl)-2-azaspiro[3.3]heptan-6-carboxylic acid] | > 10000
C[C@H]1CCN1c1nc(N2CC3(C2)CS(=O)(=O)C3)cc(C(F)(F)F)c1C(N)=O [Example 17, (S)-6-(2,2-dioxa-2-thioxa-6-azaspiro[3.3]heptan-6-yl)-2-(2-methylazetidine-1-yl)-4-(trifluoromethyl)nicotinamide] | > 10000
CC(=O)N[C@@H]1CN(c2nc(N3CC4(CC(C(=O)O)C4)C3)c3c(n2)C(F)(F)CC3)[C@H]1C [Example 28, 2-(2-((2S,3R)-3-acetamido-2-methylazetidine-1-yl)-7,7-difluoro-6,7-dihydro-5H-cyclopentadiene[d]pyrimidin-4-yl)-2-azaspiro[3.3]heptan-6-carboxylic acid] | > 10000
C[C@@H](C(=O)O)[C@H]1[C@@H]2CN(c3cc(C(F)(F)F)c(C#N)c(N4CC[C@@H]4C)n3)C[C@@H]21 [Example 18, (R)-2-((1R,5S,6R)-3-(5-cyano-6-((S)-2-methylazetidine-1-yl)-4-(trifluoromethyl)pyridin-2-yl)-3-azabicyclo[3.1.0]hexan-6-yl)propionic acid] | 100
C[C@H]1CCN1c1nc(N2C[C@@H]3[C@@H](CC(=O)O)[C@@H]3C2)cc(C(F)(F)F)c1C#N [Example 8, 2-((1R,5S,6R)-3-(5-cyano-6-((S)-2-methylazetidine-1-yl)-4-(trifluoromethyl)pyridin-2-yl)-3-azabicyclo[3.1.0]hexan-6-yl)acetic acid] | 0.17
